Test results published in US20140294925A1 (priority 2013, published 2014).
Values after ≈ are worked out from the molar mass of the structure shown. Read-outs that look alike come from different tables or passages of the source.

Legend:
[1] = test system: VRSA (vancomycin-resistant Staphylococcus aureus); conditions: cited from earlier work
[2] = test system: Staph. aureus ATCC29213 (semi-resistant); test: MIC determination, MHB broth microdilution (CLSI M07-A9); type: cell-based; conditions: Staphylococcus aureus
[3] = test system: Staph. aureus ATCC700787 (MRSA/VISA); test: MIC/FIC/FICI determination, MHB broth microdilution (CLSI M07-A9); type: cell-based; conditions: Staphylococcus aureus
[4] = test system: Enterococcus faecium ATCC700221 (VRE); test: as above; type: cell-based; conditions: single compound
[5] = rat, in vivo, topical or ocular; cited from earlier work
[6] = rat, in vivo; cited from earlier work

**Q.** What does the source list for `CN[C@H](CC(C)C)C(=O)N[C@H]1C(=O)N[C@@H](CC(N)=O)C(=O)N[C@H]2C(=O)N[C@H]3C(=O)N[C@H](C(=O)N[C@H](C(=O)O)c4cc(O)cc(O)c4-c4cc3ccc4O)[C@H](O)c3ccc(c(Cl)c3)Oc3cc2cc(c3O[C@@H]2O[C@H](CO)[C@@H](O)[C@H](O)[C@H]2O[C@H]2C[C@](C)(N)[C@H](O)[C@H](C)O2)Oc2ccc(cc2Cl)[C@H]1O` [vancomycin]?
**A.** MIC for vancomycin [1]: ≥ 16 mg/L; MIC ([2]; ATCC29213, 24 h): 2 mg/L (≈ 1.38 µM); MIC ([2]; ATCC29213, 48 h): 2 mg/L (≈ 1.38 µM); MIC ([3]; 24 h): 8 mg/L; MIC ([3]; 48 h): 8 mg/L

**Q.** Which MIC ([2]; ATCC29213, single compound, 24 hours exposure, read-out: MIC) does the source give for `CCCCCCCCCC(=O)N[C@@H](Cc1c[nH]c2ccccc12)C(=O)N[C@H](CC(N)=O)C(=O)N[C@@H](CC(=O)O)C(=O)N[C@@H]1C(=O)NCC(=O)N[C@@H](CCCN)C(=O)N[C@@H](CC(=O)O)C(=O)N[C@H](C)C(=O)N[C@@H](CC(=O)O)C(=O)NCC(=O)N[C@H](CO)C(=O)N[C@@H]([C@H](C)CC(=O)O)C(=O)N[C@@H](CC(=O)c2ccccc2N)C(=O)O[C@@H]1C` [daptomycin] here?
**A.** The MIC was 2 mg/L (≈ 1.23 µM).

**Q.** What about the MIC ([2]; ATCC29213, single compound, 48 hours exposure, read-out: MIC) of the same compound?
**A.** The MIC was 2 mg/L (≈ 1.23 µM).

**Q.** What about the MIC ([4]; 24 hours exposure) of the same compound?
**A.** The MIC was 8 mg/L.

**Q.** What about the MIC ([4]; 48 hours exposure) of the same compound?
**A.** The MIC was 8 mg/L.

**Q.** And the MIC ([3]; single compound, 24 hours exposure, read-out: MIC)?
**A.** Its MIC is 4 mg/L.

**Q.** What about the MIC ([3]; single compound, 48 hours exposure, read-out: MIC) of the same compound?
**A.** The MIC was 8 mg/L.

**Q.** Which “acute dermal toxicity LD50” value [5] does the source give for rhamnolipids here?
**A.** Its value is > 5000 mg/kg.

**Q.** And the “acute oral toxicity LD50” value [6]?
**A.** Its value is > 5000 mg/kg.
